What was measured:
[1] = system: blackgrass; assay: Test B pre/postemergence blackgrass; format: in vivo, Alopecurus myosuroides
Outline: (§1)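 Response is a visual 0-to-10 score relative to untreated plants, where 0 means no effect and 10 means complete control, taken twelve to sixteen days after application. Treatments went onto soil at planting and onto foliage of 1- to 4-leaf plants, using a surfactant-containing non-phytotoxic solvent.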

[2] = system: cocklebur; assay: Test B pre/postemergence cocklebur; format: in vivo, Xanthium strumarium
Outline: as §1

[3] = system: corn; assay: Test B pre/postemergence corn; format: in vivo, Zea mays
Outline: as §1

[4] = system: crabgrass; assay: Test B pre/postemergence crabgrass; format: in vivo, Digitaria sanguinalis
Outline: as §1

[5] = system: giant foxtail; assay: Test B pre/postemergence giant foxtail; format: in vivo, Setaria faberii
Outline: as §1

[6] = system: morningglory; assay: Test B pre/postemergence morningglory; format: in vivo, Ipomoea hederacea
Outline: as §1

[7] = system: pigweed; assay: Test B pre/postemergence pigweed; format: in vivo, Amaranthus retroflexus; settings: for Redroot pigweed plant response rating: Postemergence; for Plant response rating, Redroot pigweed: Preemergence
Outline: as §1

[8] = system: rape; assay: Test B pre/postemergence rape; format: in vivo, Brassica napus
Outline: as §1

[9] = system: soybean; assay: Test B pre/postemergence soybean; format: in vivo, Glycine max
Outline: as §1

[10] = system: sugar beet; assay: Test B pre/postemergence sugar beet; format: in vivo, Beta vulgaris
Outline: as §1

[11] = system: velvetleaf; assay: Test B pre/postemergence velvetleaf; format: in vivo, Abutilon theophrasti
Outline: as §1

[12] = system: wheat; assay: Test B pre/postemergence wheat; format: in vivo, Triticum aestivum
Outline: as §1

[13] = system: purple nutsedge; assay: Test B pre/postemergence purple nutsedge; format: in vivo, Cyperus rotundus
Outline: as §1

[14] = system: rice; assay: Test B flood test rice; format: in vivo, Oryza sativa
Outline: (§2)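 Plants were grown to the 2-leaf stage before treatment with test chemical, then held in a greenhouse for twelve to sixteen days. Injury was visually rated against untreated controls on a 0–10 scale, where 0 is no effect and 10 is complete control.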

[15] = system: smallflower flatsedge; assay: Test B flood test smallflower flatsedge; format: in vivo, Cyperus difformis
Outline: as §2

[16] = system: duck salad; assay: Test B flood test duck salad; format: in vivo, Heteranthera limosa
Outline: as §2

[17] = Postemergence, Rate 62 g/ha, scale 0 to 10, 0 is no effect, 10 is complete control
[18] = Postemergence, Rate 250 g/ha, scale 0 to 10, 0 no effect, 10 complete control
[19] = Preemergence, Rate 62 g/ha, scale 0 to 10, 0 is no effect, 10 is complete control
[20] = Preemergence, Rate 125 g/ha, scale 0 to 10 (0 no effect, 10 complete control)
[21] = Preemergence, Rate 250 g/ha, scale of 0 to 10 where 0 is no effect and 10 is complete control
[22] = Preemergence, Rate 500 g/ha, scale 0 (no effect) to 10 (complete control)
[23] = Rate 125 g/ha, Postemergence, scale 0 to 10, 0 no effect, 10 complete control
[24] = Rate 500 g/ha, Postemergence, 0 to 10 scale (0 no effect, 10 complete control)
[25] = Rate 62 g/ha, scale 0 to 10, 0 is no effect, 10 is complete control
[26] = Rate 125 g/ha, Postemergence section (flood test species), scale 0 to 10, 0 no effect, 10 complete control
[27] = Rate 500 g/ha, Postemergence section of Table B, 0 to 10 scale (0 no effect, 10 complete control)
[28] = flood test, listed under Postemergence, Rate 250 g/ha, scale 0 to 10, 0 no effect, 10 complete control

CC(C)N(C(=O)n1oc(=O)n(-c2c(Cl)cccc2Cl)c1=O)c1ccc(F)cc1 [Compound 19]
Blackgrass plant response rating [1, 17]: 0 | Blackgrass plant response rating [1, 18]: 0 | Plant response rating, Blackgrass [1, 19]: 0 | Plant response rating, Blackgrass [1, 20]: 2 | Plant response rating, Blackgrass [1, 21]: 2 | Blackgrass plant response rating [1, 22]: 3 | Blackgrass plant response rating [1, 23]: 0 | Blackgrass plant response rating [1, 24]: 2 | Cocklebur plant response rating [2, 17]: 0 | Cocklebur plant response rating [2, 18]: 0 | Plant response rating, Cocklebur [2, 19]: 0 | Plant response rating, Cocklebur [2, 21]: 0 | Cocklebur plant response rating [2, 22]: 0 | Cocklebur plant response rating [2, 23]: 0 | Cocklebur plant response rating [2, 24]: 0 | Corn plant response rating [3, 17]: 0 | Corn plant response rating [3, 18]: 0 | Plant response rating, Corn [3, 19]: 0 | Plant response rating, Corn [3, 20]: 0 | Plant response rating, Corn [3, 21]: 0 | Corn plant response rating [3, 22]: 0 | Corn plant response rating [3, 23]: 0 | Corn plant response rating [3, 24]: 0 | Crabgrass plant response rating [4, 17]: 0 | Crabgrass plant response rating [4, 18]: 0 | Plant response rating, Crabgrass [4, 19]: 3 | Plant response rating, Crabgrass [4, 20]: 5 | Plant response rating, Crabgrass [4, 21]: 7 | Crabgrass plant response rating [4, 22]: 10 | Crabgrass plant response rating [4, 23]: 0 | Giant foxtail plant response rating [5, 17]: 0 | Giant foxtail plant response rating [5, 18]: 0 | Plant response rating, Giant foxtail [5, 19]: 0 | Plant response rating, Giant foxtail [5, 20]: 2 | Plant response rating, Giant foxtail [5, 21]: 4 | Giant foxtail plant response rating [5, 22]: 5 | Giant foxtail plant response rating [5, 23]: 0 | Giant foxtail plant response rating [5, 24]: 1 | Morningglory plant response rating [6, 17]: 0 | Morningglory plant response rating [6, 18]: 0 | Plant response rating, Morningglory [6, 19]: 0 | Plant response rating, Morningglory [6, 20]: 0 | Plant response rating, Morningglory [6, 21]: 0 | Morningglory plant response rating [6, 22]: 0 | Morningglory plant response rating [6, 23]: 0 | Morningglory plant response rating [6, 24]: 2 | Redroot pigweed plant response rating [7, 25]: 0 | Redroot pigweed plant response rating ([7]; Rate 250 g/ha, scale 0 to 10, 0 no effect, 10 complete control): 2 | Plant response rating, Redroot pigweed [7, 25]: 0 | Plant response rating, Redroot pigweed ([7]; Rate 125 g/ha, scale 0 to 10 (0 no effect, 10 complete control)): 0 | Plant response rating, Redroot pigweed ([7]; Rate 250 g/ha, scale of 0 to 10 where 0 is no effect and 10 is complete control): 2 | Redroot pigweed plant response rating ([7]; Rate 125 g/ha, scale 0 to 10, 0 no effect, 10 complete control): 0 | Redroot pigweed plant response rating ([7]; Rate 500 g/ha, 0 to 10 scale (0 no effect, 10 complete control)): 5 | Rape plant response rating [8, 17]: 0 | Rape plant response rating [8, 18]: 0 | Plant response rating, Rape [8, 19]: 0 | Plant response rating, Rape [8, 20]: 0 | Plant response rating, Rape [8, 21]: 0 | Rape plant response rating [8, 22]: 3 | Rape plant response rating [8, 23]: 0 | Rape plant response rating [8, 24]: 0 | Soybean plant response rating [9, 17]: 2 | Soybean plant response rating [9, 18]: 3 | Plant response rating, Soybean [9, 19]: 0 | Plant response rating, Soybean [9, 20]: 0 | Plant response rating, Soybean [9, 21]: 0 | Soybean plant response rating [9, 22]: 0 | Soybean plant response rating [9, 23]: 3 | Sugarbeets plant response rating [10, 17]: 0 | Sugarbeets plant response rating [10, 18]: 0 | Plant response rating, Sugarbeets [10, 19]: 0 | Plant response rating, Sugarbeets [10, 20]: 0 | Plant response rating, Sugarbeets [10, 21]: 1 | Sugarbeets plant response rating [10, 22]: 2 | Sugarbeets plant response rating [10, 23]: 0 | Velvetleaf plant response rating [11, 17]: 0 | Velvetleaf plant response rating [11, 18]: 0 | Plant response rating, Velvetleaf [11, 19]: 0 | Plant response rating, Velvetleaf [11, 20]: 0 | Plant response rating, Velvetleaf [11, 21]: 0 | Velvetleaf plant response rating [11, 22]: 0 | Velvetleaf plant response rating [11, 23]: 0 | Wheat plant response rating [12, 17]: 0 | Wheat plant response rating [12, 18]: 0 | Plant response rating, Wheat [12, 19]: 0 | Plant response rating, Wheat [12, 20]: 0 | Plant response rating, Wheat [12, 21]: 0 | Wheat plant response rating [12, 22]: 0 | Wheat plant response rating [12, 23]: 0 | Nutsedge plant response rating [13, 17]: 0 | Nutsedge plant response rating [13, 18]: 0 | Plant response rating, Nutsedge [13, 19]: 0 | Plant response rating, Nutsedge [13, 20]: 0 | Plant response rating, Nutsedge [13, 21]: 0 | Nutsedge plant response rating [13, 22]: 0 | Nutsedge plant response rating [13, 23]: 0 | Nutsedge plant response rating [13, 24]: 0 | Rice plant response rating [14, 17]: 0 | Rice plant response rating [14, 26]: 0 | Rice plant response rating [14, 27]: 0 | Rice plant response rating [14, 28]: 0 | S. Flatsedge plant response rating [15, 17]: 0 | S. Flatsedge plant response rating [15, 26]: 0 | S. Flatsedge plant response rating [15, 28]: 0 | Ducksalad plant response rating [16, 17]: 0 | Ducksalad plant response rating [16, 26]: 0 | Ducksalad plant response rating [16, 27]: 0 | Ducksalad plant response rating [16, 28]: 0
